From US12440582B2, “Biothiol-activatable probe and method of use” (BOARD OF REGENTS, THE UNIVERSITY OF TEXAS SYSTEM, priority 2019, dated 2025)
Counter-ions that a name gives are not always drawn. Each block holds one molecule with its values, some of them ahead of it.

How the values were obtained:
liver GSH = assay: Liver GSH level measured ex vivo (Tietze enzymatic recycling assay); format: in vivo, BALB/c mice; conditions: for hepatic GSH level: 30 min p.i.
serum GSH = assay: Serum GSH level following APAP administration; format: in vivo, mice; conditions: 2 h after APAP 300 mg/kg i.p.
Method: FIG. 54. Serum GSH level following APAP administration. […] Data reported are means and standard deviation overlapped with data points from individual mouse. Statistical significance is evaluated by two-sample equal variance t-test. P<0.05 is considered statistically significant. N=4 mice for the experiment.

[1] = in vivo
Excerpt: FIGS. 39A-E. Utilization of hepatic glutathione-mediated biotransformation to enhance tumor targeting of a cisplatin prodrug. (FIG. 39A) Scheme illustrating the rationale of designing the ICG-Cis-Pt prodrug by combining temporal serum protein binding and hepatic glutathione-mediated biotransformation to slow down the rapid renal clearance of Cis-Pt prodrug and enhance its tumor targeting efficiency while avoiding predominant accumulation in MPS. […] (FIG. 39C) Tumor targeting efficiency of Cis-Pt pro drug and ICG-Cis-Pt prodrug at 48 hr p.i. (FIG. 39D) Renal clearance profiles of Cis-Pt prodrug and ICG-Cis-Pt prodrug. […] (FIG. 39E) Biodistribution of Pt in organs at 48 hr and 7 day following intravenously injection of ICG-Cis-Pt prodrug. The accumulation of ICG-Cis-Pt in MPS as well as in other major organs is low and continues to decrease over time. Statistical significance is evaluated by two-sample t-test (**p<0.01).

plasma GSH = assay: Plasma glutathione level after DEM administration; format: in vivo, BALB/c mice
Method: FIGS. 21A-B. Plasma glutathione level after DEM administration. (FIG. 21A) Plasma total glutathione (reduced GSH+2GSSG) and glutathione disulfide (GSSG) concentration at various time points after intraperitoneal injection of 1 mL/kg DEM in mice (n=3). (FIG. 21B) Plasma reduced glutathione concentration at different time was then calculated by subtracting GSSG from the total GSH concentration. The quantification of plasma total GSH and GSSG was carried out according to the established procedures (Rahman et al., 2006) via a modified Tietze enzymatic recycling assay.
Depletion of tissue GSH in vivo.

[2] = system: APAP-induced liver injury; assay: NAC treatment of APAP-induced liver injury (liver morphology, TUNEL); format: in vivo, mice
Method: FIGS. 44A-D. Monitoring hepatic GSH depletion in drug-induced liver injury allows early treatment and improves prognosis. (FIG. 44A) Scheme of the APAP metabolism and pathophysiology process of APAP overdose induced hepatotoxicity. Hepatic GSH depletion occurs much earlier than the death of hepatocytes and the release of serum biomarkers. (FIG. 44B) Serum ALT levels of mice (N=3) at multiple time points after receiving 300 mg/kg body weight APAP. […] (FIG. 44C) Serum ALT levels of mice (N=3) at 12 h post injection of overdose APAP with NAC treatment at different time points after APAP administration. (FIG. 44D) Representative color pictures of the liver (12 h after APAP administration) as well as fluorescent microscope images of cell death in liver tissues (detected using TUNEL assay) from APAP overdosed mice without NAC treatment or receiving NAC treatment at 30 min (early treatment) and 5.5 h (delayed treatment) after APAP administration. Cell nuclei were counter-stained with DAPI. Scale bar, 20 μm. Statistical significance is evaluated by two-sample equal variance t-test (P<0.05; statistically significant). Data points are presented as means and standard deviation.
APAP-induced liver injury animal model. Healthy male BALB/c mice were pre-fasted for 5 h and then intraperitoneally injected with APAP saline solution (˜28 mg/mL) at an overdose of 300 mg/kg body weight. […]

[3] = Blood pharmacokinetics after intravenous injection; conditions: i.v.
Method: Statistical significance is evaluated using a two-sample unequal variances (Welch's) t-test (**P<0.01, ***P<0.005). Data points are reported as mean±s.d.
Both curves were fitted with two-phase exponential decay functions to obtain the weighted average half-lives.
Pharmacokinetics and biodistribution study of 1CG4-GS-Au25. […] At certain time point post-injection, blood sample (˜30 μL) was retro-orbitally collected and weighed, followed by the addition of 500 μL lysis buffer containing 20 mM cysteine (pH˜8) to liberate ICG from Au25 nanocluster and recover the quenched fluorescence of ICG. Then fluorescence of cysteine treated blood sample was measured by the in vivo imaging system to quantify ICG in blood. Afterwards, the blood sample was completely dissolved in freshly made aqua regia and the Au amount in blood was analyzed by ICP-MS.

in vivo = conditions: nude, mouse, in vivo
Excerpt: (§1) FIGS. 30A-B. Decay of background tissue fluorescence signal over time. (FIG. 30A) Representative in vivo imaging of 1CG4-GS-Au25 injected mouse (72 hr p.i.) illustrating the region of interest (ROI) chosen for tumor (red dashed circle) and background tissue (yellow dashed circle) ICG fluorescence quantification. Red arrows indicate tumor location.

MCF-7 tumor = assay: in vivo; conditions: MCF-7 tumor bearing nude mice
Excerpt: as §1

[4] = Tumor targeting efficiency in MCF-7 xenograft mice; format: in vivo; conditions: nude, mouse, tumor (MCF-7 xenograft), intravenous, 24 hr p.i., read-out: tumor targeting efficiency (ICG)
Excerpt: Blue arrows indicate the tumors.

Structure (SMILES): CC(=O)Nc1ccc(O)cc1 [APAP, acetaminophen]
hepatic GSH level of overdosed mice, of that of the control mice (liver GSH; APAP 300 mg/kg): ~36%
hepatic GSH level (liver GSH; APAP normal dose 60 mg/kg): 6.6±0.8 μmole/g tissue
hepatic GSH level (liver GSH; APAP overdose 300 mg/kg): 2.1±1.2 μmole/g tissue
serum GSH level (serum GSH): didn't change significantly

liver GSH level (liver GSH; 0.5 h after CPZ 100 mg/kg i.p.): decrease in hepatic GSH level
Structure (SMILES): CN(C)CCCN1c2ccccc2Sc2ccc(Cl)cc21 [CPZ, chlorpromazine]

AUC (blood retention) [1]: 7.4±0.2 % ID/g×h
Structure (SMILES): [NH2][Pt]([NH2])([OH])([Cl])([Cl])[O]C(=O)CCC(=O)O [Cis-Pt prodrug, cis,cis,trans-[Pt(NH3)2Cl2(OH)(O2CCH2CH2COOH)]]

Structure (SMILES): CCOC(=O)/C=C\C(=O)OCC [DEM, diethyl maleate]
duration of low plasma GSH level before recovery (plasma GSH; single injection of DEM): 2 to 3 h
plasma GSH level, of the initial value (plasma GSH; single intraperitoneal injection of DEM, 1 mL/kg): ~12%
liver GSH level (liver GSH; 0.3 mg/kg body weight DEM, intraperitoneal): ~3.1 μmole/g liver tissue
liver GSH level (liver GSH; 0.6 mg/kg body weight DEM, intraperitoneal): ~0.6 μmole/g liver tissue

Structure (SMILES): CC(=O)N[C@@H](CS)C(=O)O [NAC, N-acetylcysteine]
effect on liver damage (morphology, TUNEL) ([2]; NAC at 30 min post-injection of APAP (early treatment)): almost completely reverse the liver damage
effect on liver damage (morphology, TUNEL) ([2]; NAC at 5.5 h after APAP overdose (delayed treatment)): severe hemorrhage on the liver tissue as well as the pervasive death of liver cells

ICG blood retention (AUC) [3]: ~1.9 h×% ID/g
half-life (in vivo; half-life of ICG retention (fluorescence decay) in tumor): ~3.8 h
half-life (in vivo; half-life of ICG signal in background tissues): 3.5 h
tissue uptake at 24 h [4]: ~0.15 %ID/g
Structure (SMILES): CC1(C)C(/C=C/C=C/C=C/C=C2\N(CCCCS(=O)(=O)O)c3ccc4ccccc4c3C2(C)C)=[N+](CCCCS(=O)(=O)[O-])c2ccc3ccccc3c21 [free ICG, indocyanine green]
maximum tumor contrast index (CI) (MCF-7 tumor): 1.8
